Five compounds from patent US10168342B2, “Lipid probes and uses thereof” (THE SCRIPPS RESEARCH INSTITUTE, priority 2015, dated 2019) can be followed below.

Like-named read-outs stand apart in the source and are kept apart here.

In test [1] the target is T1, AEA-DA lipid probe targets in Neuro2a cells (Mus musculus, UniProt P54071).
T1 sequence (P54071 40-452): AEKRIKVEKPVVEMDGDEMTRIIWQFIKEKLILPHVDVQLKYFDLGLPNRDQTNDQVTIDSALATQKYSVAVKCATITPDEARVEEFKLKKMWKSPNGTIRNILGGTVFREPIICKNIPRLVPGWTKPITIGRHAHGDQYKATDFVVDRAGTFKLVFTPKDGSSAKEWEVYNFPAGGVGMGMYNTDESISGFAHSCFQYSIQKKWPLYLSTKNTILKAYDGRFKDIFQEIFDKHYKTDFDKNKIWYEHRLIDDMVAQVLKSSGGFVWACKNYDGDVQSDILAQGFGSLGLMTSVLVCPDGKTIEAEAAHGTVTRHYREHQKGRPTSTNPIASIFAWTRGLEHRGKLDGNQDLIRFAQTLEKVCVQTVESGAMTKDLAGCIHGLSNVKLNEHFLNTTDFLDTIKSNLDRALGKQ

The target in test [2] is T2, AEA-DA lipid probe targets in Neuro2a cells (Mus musculus, UniProt Q920A5).
T2 sequence (Q920A5 29-452): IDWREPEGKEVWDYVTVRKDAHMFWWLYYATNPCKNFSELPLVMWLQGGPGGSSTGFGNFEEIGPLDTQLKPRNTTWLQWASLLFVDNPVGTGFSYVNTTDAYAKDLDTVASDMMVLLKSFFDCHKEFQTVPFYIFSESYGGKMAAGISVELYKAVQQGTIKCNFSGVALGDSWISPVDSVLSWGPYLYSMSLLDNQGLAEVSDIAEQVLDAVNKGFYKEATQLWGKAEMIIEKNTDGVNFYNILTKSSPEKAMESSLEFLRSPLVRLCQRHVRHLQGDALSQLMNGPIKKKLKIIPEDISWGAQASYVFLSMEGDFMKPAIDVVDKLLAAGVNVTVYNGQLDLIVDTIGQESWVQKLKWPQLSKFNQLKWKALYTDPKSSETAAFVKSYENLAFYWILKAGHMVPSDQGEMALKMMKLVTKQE

Test [3] addresses T3, AEA-DA lipid probe targets in Neuro2a cells (Mus musculus, UniProt Q9WU62).
T3 sequence (Q9WU62 1-880): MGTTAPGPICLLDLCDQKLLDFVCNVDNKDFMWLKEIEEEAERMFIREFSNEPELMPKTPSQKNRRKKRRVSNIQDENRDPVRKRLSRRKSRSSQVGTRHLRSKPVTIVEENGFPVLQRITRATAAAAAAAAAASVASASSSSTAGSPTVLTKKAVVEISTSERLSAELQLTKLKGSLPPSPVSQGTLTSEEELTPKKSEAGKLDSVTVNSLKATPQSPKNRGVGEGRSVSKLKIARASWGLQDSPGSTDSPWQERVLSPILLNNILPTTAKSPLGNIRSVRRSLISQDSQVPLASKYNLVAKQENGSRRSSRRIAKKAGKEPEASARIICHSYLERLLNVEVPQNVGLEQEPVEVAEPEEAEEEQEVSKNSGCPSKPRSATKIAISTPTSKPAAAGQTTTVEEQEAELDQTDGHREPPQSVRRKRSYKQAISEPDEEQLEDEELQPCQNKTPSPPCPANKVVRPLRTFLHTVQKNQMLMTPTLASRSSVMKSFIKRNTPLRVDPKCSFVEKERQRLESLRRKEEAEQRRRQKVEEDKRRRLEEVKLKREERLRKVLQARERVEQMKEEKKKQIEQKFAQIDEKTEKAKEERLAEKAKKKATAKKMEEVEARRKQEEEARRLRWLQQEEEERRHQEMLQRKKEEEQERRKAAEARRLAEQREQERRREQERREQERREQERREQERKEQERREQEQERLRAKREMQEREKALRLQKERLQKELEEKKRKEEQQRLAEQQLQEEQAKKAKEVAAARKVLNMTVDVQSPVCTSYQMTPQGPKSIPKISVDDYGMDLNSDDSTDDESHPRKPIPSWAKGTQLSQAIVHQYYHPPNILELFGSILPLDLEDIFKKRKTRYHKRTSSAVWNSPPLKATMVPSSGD

The target in test [4] is T4, AEA-DA lipid probe targets in Neuro2a cells (Mus musculus, UniProt O08579).
T4 sequence (O08579 1-259): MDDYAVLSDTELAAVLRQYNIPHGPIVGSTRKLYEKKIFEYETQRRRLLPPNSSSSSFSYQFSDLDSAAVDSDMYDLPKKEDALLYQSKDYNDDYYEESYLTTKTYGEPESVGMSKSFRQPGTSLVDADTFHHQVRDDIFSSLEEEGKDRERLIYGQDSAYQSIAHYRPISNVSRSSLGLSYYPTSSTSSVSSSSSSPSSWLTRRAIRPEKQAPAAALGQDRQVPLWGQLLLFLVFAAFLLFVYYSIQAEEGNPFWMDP
The conditions noted are these: for SILAC ratio, EMD (O08579): Neuro2a cells, AEA-DA probe.

Test [5] concerns the target AEA-DA lipid probe targets in Neuro2a cells (Mus musculus, UniProt P15331).
Test [6] has as its target T5, AEA-DA lipid probe targets in Neuro2a cells (Mus musculus, UniProt Q61035).
T5 sequence (Q61035 1-509): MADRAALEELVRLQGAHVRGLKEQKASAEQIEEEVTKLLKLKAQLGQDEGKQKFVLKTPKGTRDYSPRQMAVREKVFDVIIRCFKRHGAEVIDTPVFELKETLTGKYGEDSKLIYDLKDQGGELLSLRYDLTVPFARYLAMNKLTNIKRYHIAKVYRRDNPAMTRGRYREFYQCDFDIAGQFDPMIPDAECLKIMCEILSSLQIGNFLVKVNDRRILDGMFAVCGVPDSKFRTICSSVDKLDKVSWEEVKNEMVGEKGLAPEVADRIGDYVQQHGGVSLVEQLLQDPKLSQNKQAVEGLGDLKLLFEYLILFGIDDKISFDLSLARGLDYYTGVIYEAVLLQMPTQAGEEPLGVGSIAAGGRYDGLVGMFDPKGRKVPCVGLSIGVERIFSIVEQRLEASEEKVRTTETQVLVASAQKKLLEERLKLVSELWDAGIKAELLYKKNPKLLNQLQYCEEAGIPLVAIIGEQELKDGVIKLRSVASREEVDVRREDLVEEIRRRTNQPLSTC

AEA-DA lipid probe targets in Neuro2a cells (Mus musculus, UniProt P15331), sequence (P15331 whole entry): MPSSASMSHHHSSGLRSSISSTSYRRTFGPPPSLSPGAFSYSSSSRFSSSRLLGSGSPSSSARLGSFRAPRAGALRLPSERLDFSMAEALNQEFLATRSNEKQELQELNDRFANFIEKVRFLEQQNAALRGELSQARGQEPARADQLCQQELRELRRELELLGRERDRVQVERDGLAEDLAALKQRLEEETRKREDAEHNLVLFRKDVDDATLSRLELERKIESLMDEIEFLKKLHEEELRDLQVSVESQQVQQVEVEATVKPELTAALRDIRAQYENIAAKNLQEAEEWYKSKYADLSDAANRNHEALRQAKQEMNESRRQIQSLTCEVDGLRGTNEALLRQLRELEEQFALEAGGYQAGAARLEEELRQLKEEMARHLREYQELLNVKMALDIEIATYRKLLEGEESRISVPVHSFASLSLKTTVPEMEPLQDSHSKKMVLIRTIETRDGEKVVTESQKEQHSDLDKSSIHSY

On to `CCCCC/C=C\C/C=C\C/C=C\C/C=C\CCCC(=O)NCCO` [AEA, anandamide, reference compound], for which the “SILAC ratio Idh2” value in test [1] (competitor 200 μM) came to 1.2. Further, the “SILAC ratio Scpep1” value in test [2] (competitor 200 μM) came to 1.0. The “SILAC ratio Incenp” value in test [3] (competitor 200 μM) is recorded as 1.4. Moreover, in test [4] (competitor 200 μM), the “SILAC ratio, EMD (O08579)” value is recorded as 1.4 and the “SILAC ratio, Emd” value worked out at 1.4. Also, the “SILAC ratio Prph” value in test [5] (competitor 200 μM) is 1.0. The “SILAC ratio Hars” value in test [6] (competitor 200 μM) is 1.2.

On to `C=CCN(C)CCCCCCOc1ccc(C(=O)c2ccc(Br)cc2)c(F)c1` [Ro 48-8071, reference compound], for which the “SILAC ratio Idh2” value in test [1] (competitor 25 μM) amounted to 0.9. Further, the “SILAC ratio Scpep1” value in test [2] (competitor 25 μM) is 0.4. In test [4] (competitor 25 μM), the “SILAC ratio, EMD (O08579)” value came to 1.3 and the “SILAC ratio, Emd” value is given as 1.3. Moreover, the “SILAC ratio Prph” value in test [5] (competitor 25 μM) was 0.8. Moreover, the “SILAC ratio Hars” value in test [6] (competitor 25 μM) was 0.9.

`CN1CCN(C(=O)c2c(-c3ccccc3)c3cc([N+](=O)[O-])ccc3n2C)CC1` [KML110, (1-Methyl-5-nitro-3-phenyl-1H-indol-2-yl)(4-methylpiperazin-1-yl)methanone]: the “SILAC ratio Idh2” value in test [1] (competitor 25 μM) turned out to be 1.3. In test [2] (competitor 25 μM), the “SILAC ratio Scpep1” value amounted to 1.6. For the same compound, the “SILAC ratio Incenp” value in test [3] (competitor 25 μM) is recorded as 1.2. The “SILAC ratio, Emd” value in test [4] (competitor 25 μM) stood at 1.7. Further, the “SILAC ratio Prph” value in test [5] (competitor 25 μM) is given as 1.1. Further, the “SILAC ratio Hars” value in test [6] (competitor 25 μM) turned out to be 1.5.

Turning to `O=C(/C=C/c1cccnc1)NCCCCC1CCN(C(=O)c2ccccc2)CC1` [FK-866, reference compound], the “SILAC ratio Idh2” value in test [1] (competitor 25 μM) is 1.2. Also, the “SILAC ratio Scpep1” value in test [2] (competitor 25 μM) stood at 1.2. The “SILAC ratio Incenp” value in test [3] (competitor 25 μM) came out at 0.8. Further, in test [4] (competitor 25 μM), the “SILAC ratio, EMD (O08579)” value is 1.4 and the “SILAC ratio, Emd” value is 1.4. Also, in test [5] (competitor 25 μM), the “SILAC ratio Prph” value came out at 1.2. The “SILAC ratio Hars” value in test [6] (competitor 25 μM) is recorded as 1.3.

As to `CN1CCN(C(=O)c2[nH]c3ccc([N+](=O)[O-])cc3c2-c2ccccc2)CC1` [MJN228, (4-Methylpiperazin-1-yl)(5-nitro-3-phenyl-1H-indol-2-yl)methanone], the “SILAC ratio Idh2” value in test [1] (competitor 10 μM) was determined as 1.3; in test [1] (competitor 25 μM), 1.4; in test [1] (competitor 50 μM) it was 1.6; in test [1] (competitor 100 μM), 1.6. In addition, the “SILAC ratio Scpep1” value in test [2] (competitor 10 μM) was found to be 1.2; in test [2] (competitor 25 μM) it was 1.4; in test [2] (competitor 50 μM) it was 1.5; in test [2] (competitor 100 μM), 1.9. For the same compound, the “SILAC ratio Incenp” value is 1.4 in test [3] (competitor 10 μM), 1.2 in test [3] (competitor 25 μM), 1.8 in test [3] (competitor 50 μM) and 1.7 in test [3] (competitor 100 μM). For the same compound, in test [4] (competitor 25 μM), the “SILAC ratio, EMD (O08579)” value came out at 2.4. The “SILAC ratio, Emd” value in test [4] (competitor 10 μM) was found to be 1.8; in test [4] (competitor 25 μM) it was 2.4; in test [4] (competitor 50 μM), 2.5; in test [4] (competitor 100 μM), 4.5. Besides, the “SILAC ratio Prph” value in test [5] (competitor 10 μM) is on record as 1.0; in test [5] (competitor 25 μM), 1.2; in test [5] (competitor 50 μM) it was 0.7; in test [5] (competitor 100 μM) it was 0.9. Besides, the “SILAC ratio Hars” value in test [6] (competitor 10 μM) is given as 1.6; in test [6] (competitor 25 μM), 1.5; in test [6] (competitor 50 μM), 1.0; in test [6] (competitor 100 μM), 1.4.
